# Columns and labels:
# Assay in all cases: relative viability (nuclei count vs DMSO), 5 days (fraction); higher = more cells survive
# [1] = compound: C1CSC2=C(C(=O)N1)SC3=C2C=C(C=C3)O [kb NB 142-70] + CC(=O)Nc1cccc(-n2c(=O)n(C3CC3)c(=O)c3c(Nc4ccc(I)cc4F)n(C)c(=O)c(C)c32)c1 [Trametinib] (partner 0.02 µM)
# In short: (§1)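 Relative viability is defined as nuclei in treated wells over nuclei in vehicle wells. Duplicate plates were run and medians reported. Lung cancer cell lines in 1536-well plates were dosed by pin tool one day after seeding, with one drug or with a fixed anchor-drug dose plus five library-drug doses (not always all listed) in √10 steps, and nuclei were counted after 5 days.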
# kb NB 142-70 + Dasatinib = compound: C1CSC2=C(C(=O)N1)SC3=C2C=C(C=C3)O [kb NB 142-70] + Cc1nc(Nc2ncc(C(=O)Nc3c(C)cccc3Cl)s2)cc(N2CCN(CCO)CC2)n1 [Dasatinib] (partner 0.075 µM)
# In short: as §1
# [2] = compound: NCC(=O)Nc1ccc(-n2nc(C(F)(F)F)cc2-c2ccc3c(ccc4ccccc43)c2)cc1 + O=C(c1cc(Cc2n[nH]c(=O)c3ccccc23)ccc1F)N1CCN(C(=O)C2CC2)CC1 [Olaparib] (partner 8 µM)
# In short: as §1
# [3] = compound: NCC(=O)Nc1ccc(-n2nc(C(F)(F)F)cc2-c2ccc3c(ccc4ccccc43)c2)cc1 + C[C@@H](Oc1cc(-c2cnn(C3CCNCC3)c2)cnc1N)c1c(Cl)ccc(F)c1Cl [Crizotinib] (partner 1 µM)
# In short: as §1
# kb NB 142-70 + Lapatinib = compound: C1CSC2=C(C(=O)N1)SC3=C2C=C(C=C3)O [kb NB 142-70] + CS(=O)(=O)CCNCc1ccc(-c2ccc3ncnc(Nc4ccc(OCc5cccc(F)c5)c(Cl)c4)c3c2)o1 [Lapatinib] (partner 2 µM)
# In short: as §1
Cell Line,relative viability ([1]; first compound 0.1 µM),relative viability ([1]; first compound 1 µM),relative viability ([1]; first compound 3.162 µM),relative viability (kb NB 142-70 + Dasatinib; first compound 0.1 µM),relative viability (kb NB 142-70 + Dasatinib; first compound 1 µM),relative viability (kb NB 142-70 + Dasatinib; first compound 3.162 µM),relative viability ([2]; first compound 0.02 µM),relative viability ([2]; first compound 0.06325 µM),relative viability ([2]; first compound 0.2 µM),relative viability ([2]; first compound 0.6325 µM),relative viability ([2]; first compound 2 µM),relative viability ([3]; first compound 0.02 µM),relative viability ([3]; first compound 0.06325 µM),relative viability ([3]; first compound 0.2 µM),relative viability ([3]; first compound 0.6325 µM),relative viability ([3]; first compound 2 µM),relative viability (kb NB 142-70 + Lapatinib; first compound 0.1 µM),relative viability (kb NB 142-70 + Lapatinib; first compound 1 µM),relative viability (kb NB 142-70 + Lapatinib; first compound 3.162 µM)
NCI-H596,0.792,0.854,0.65,0.551,0.571,0.442,0.627,0.77,0.739,0.714,0.658,1,1.12,1.01,1.05,0.943,1.02,0.931,0.884
NCI-H647,0.505,0.51,0.597,0.185,0.189,0.119,0.593,0.573,0.657,0.486,0.483,1.17,1.14,1.13,0.976,0.747,1.11,1.08,0.836
NCI-H650,0.939,1.22,0.895,0.495,0.475,0.377,0.395,0.415,0.421,0.399,0.396,0.728,0.809,0.72,0.653,0.802,1.05,1.17,0.657
NCI-H661,0.532,0.578,0.567,0.916,0.89,0.796,0.773,0.731,0.763,0.713,0.73,1.16,0.905,1.11,,1.01,0.511,0.478,0.492
NCI-H727,0.419,0.367,0.316,0.427,0.354,0.272,0.504,0.801,0.754,0.666,0.583,1.03,0.816,0.897,0.787,0.899,0.808,1.03,0.905
NCI-H838,0.546,0.525,0.532,0.268,0.282,0.301,0.853,0.766,0.815,0.592,0.572,0.856,0.903,0.879,0.813,0.761,0.934,0.913,1.03
NCI-H1355,0.384,0.387,0.447,0.7,0.642,0.64,0.722,0.785,0.729,0.757,0.738,0.959,1.2,1.03,0.946,1.07,0.993,0.943,1.07
NCI-H1437,0.601,0.704,0.502,0.485,0.459,0.433,0.623,0.62,0.688,0.651,0.664,0.946,0.85,0.964,0.94,0.894,0.728,0.78,0.85
NCI-H1650,0.557,0.507,0.761,0.348,0.382,0.253,0.802,0.89,0.875,0.827,0.774,1.11,1.14,0.836,1.08,1.19,0.874,0.88,0.69

# — the supplement of paper PMC10307832
